From patent US8841233B2, “Herbicidal compositions comprising 4-amino-3-chloro-5-fluoro-6-(4-chloro-2-fluoro-3-methoxyphenyl) pyridine-2-carboxylic acid or a derivative thereof and 4-hydroxyphenyl-pyruvate dioxygenase (HPPD) inhibitors” (Dow Agrosciences LLC, priority 2012, dated 2014)
Where “and” joins values, the source holds several entries; their conditions need not be identical. Identical values can stand only once.

Assays:
BRAPP = assay: Post-emergence foliar-applied weed control, greenhouse (Example I); type: in vivo
Description: Evaluation of Post-emergence Foliar-Applied Herbicidal Mixtures for Weed Control in Direct Seeded Rice
Seeds or nutlets of the desired test plant species were planted in a soil matrix prepared by mixing a loam or sandy loam soil (e.g., 28.6 percent silt, 18.8 percent clay, and 52.6 percent sand, with a pH of about 5.8 and an organic matter content of about 1.8 percent) and calcareous grit in an 80 to 20 ratio. The soil matrix was contained in plastic pots with a volume of 1 quart and a surface area of 83.6 square centimeters (cm^2). When required to ensure good germination and healthy plants, a fungicide treatment and/or other chemical or physical treatment was applied. The plants were grown for 8-22 days in a greenhouse with an approximate 14 h photoperiod which was maintained at about 29° C. during the day and 26° C. during the night. Nutrients (Peters Excel® 15-5-15 5-Ca 2-Mg and iron chelate) were applied in the irrigation solution as needed and water was added on a regular basis. Supplemental lighting was provided with overhead metal halide 1000-Watt lamps as necessary. The plants were employed for testing when they reached the first through fourth true leaf stage.
(§1) Treatments consisted of the acid or esters of 4-amino-3-chloro-5-fluoro-6-(4-chloro-2-fluoro-3-methoxy-phenyl)pyridine-2-carboxylic acid (Compound A), each formulated as an SC (suspension concentrate), and various herbicidal components alone and in combination. Forms of Compound A were applied on an acid equivalent basis.
(§2) Other herbicidal components were applied on an active ingredient basis and included 4-hydroxyphenyl pyruvate dioxygenase (HPPD)-inhibiting herbicides mesotrione formulated as Callisto®, sulcotrione formulated as Mikado®, pyrazolynate formulated as Sunbird® 10% GR, and benzobicyclon formulated as Benzobicyclon 3.5%.
Treatment requirements were calculated based upon the rates being tested, the concentration of active ingredient or acid equivalent in the formulation, and a 12 mL application volume at a rate of 187 L/ha.
For treatments comprised of formulated compounds, measured amounts of compounds were placed individually in 25 mL glass vials and diluted in a volume of 1.25% (v/v) Agri-Dex® crop oil concentrated to obtain 12× stock solutions. […] Application solutions were prepared by adding an appropriate amount of each stock solution (e.g., 1 mL) and diluted to the appropriate final concentrations with the addition of 10 mL of an aqueous mixture of 1.25% (v/v) crop oil concentrate so that the final spray solutions contained 1.25+/−0.05% (v/v) crop oil concentrate.
For treatments comprised of formulated and technical compounds, weighed amounts of the technical materials were placed individually in 25 mL glass vials and dissolved in a volume of 97:3 v/v acetone/DMSO to obtain 12× stock solutions, and measured amounts of the formulated compounds were placed individually in 25 mL glass vials and diluted in a volume of 1.5% (v/v) crop oil concentrate or water to obtain 12× stock solutions. […] Application solutions were prepared by adding an appropriate amount of each stock solution (e.g., 1 mL) and diluted to the appropriate final concentrations with the addition of an appropriate amount of an aqueous mixture of 1.5% (v/v) crop oil concentrate so that the final spray solutions contained 1.25% (v/v) crop oil concentrate. As required, additional water and/or 97:3 v/v acetone/DMSO was added to individual application solutions so that the final acetone and DMSO concentrations of the application solutions being compared were 8.1% and 0.25%, respectively.
All stock solutions and applications solutions were visually inspected for compound compatibility prior to application. Spray solutions were applied to the plant material with an overhead Mandel track sprayer equipped with a 8002E nozzles calibrated to deliver 187 L/ha over an application area of 0.503 m^2 at a spray height of 18 to 20 inches (46 to 50 cm) above average plant canopy height. […]

LEFCH = assay: In-water applied weed control, transplanted paddy rice, greenhouse (Example II); type: in vivo, Leptochloa chinensis (L.) Nees
Experimental: Evaluation of in-Water Applied Herbicidal Mixtures for Weed Control in Transplanted Paddy Rice
Weed seeds or nutlets of the desired test plant species were planted in puddled soil (mud) prepared by mixing a shredded, non-sterilized mineral soil (50.5 percent silt, 25.5 percent clay, and 24 percent sand, with a pH of about 7.6 and an organic matter content of about 2.9 percent) and water at a 1:1 volumetric ratio. The prepared mud was dispensed in 365 mL aliquots into 16-ounce (oz.) non-perforated plastic pots with a surface area of 86.59 square centimeters (cm^2) leaving a headspace of 3 centimeters (cm) in each pot. Mud was allowed to dry overnight prior to planting or transplanting. Rice seeds were planted in Sun Gro MetroMix® 306 planting mixture, which typically has a pH of 6.0 to 6.8 and an organic matter content of about 30 percent, in plastic plug trays. Seedlings at the second or third leaf stage of growth were transplanted into 840 mL of mud contained in 32-oz. non-perforated plastic pots with a surface area of 86.59 cm^2 4 days prior to herbicide application. The paddy was created by filling the headspace of the pots with 2.5 to 3 cm of water. When required to ensure good germination and healthy plants, a fungicide treatment and/or other chemical or physical treatment was applied. The plants were grown for 4-22 days in a greenhouse with an approximate 14 h photoperiod which was maintained at about 29′C during the day and 26° C. during the night. Nutrients were added as Osmocote® (19:6:12, N:P:K+ minor nutrients) at 2 g per 16-oz. pot and 4 g per 32-oz. pot. Water was added on a regular basis to maintain the paddy flood, and supplemental lighting was provided with overhead metal halide 1000-Watt lamps as necessary. The plants were employed for testing when they reached the first through fourth true leaf stage.
as §1, with “(compound A)” for “(Compound A),”, “concentrate)” for “concentrate),”, “compound” for “Compound”
as §2, with “3.5% or technical material.” for “3.5%.”
Treatment requirements for each compound or herbicidal component were calculated based upon the rates being tested, the concentration of active ingredient or acid equivalent in the formulation, an application volume of 2 mL per component per pot, and an application area of 86.59 cm^2 per pot.
For formulated compounds, a measured amount was placed in an individual 100 or 200 mL glass vial and was dissolved in a volume of 1.25% (v/v) Agri-Dex® crop oil concentrate to obtain application solutions.
For technical grade compounds, a weighed amount was placed in an individual 100 to 200 mL glass vial and was dissolved in a volume of acetone to obtain concentrated stock solutions. […] The concentrated stock solutions obtained were diluted with an equivalent volume of an aqueous mixture containing 2.5% (v/v) crop oil concentrate so that the final application solutions contained 1.25% (v/v) crop oil concentrate.
Applications were made by injecting with a pipetter appropriate amounts of the application solutions, individually and sequentially, into the aqueous layer of the paddy. Control plants were treated in the same manner with the solvent blank. Applications were made so that all treated plant material received the same concentrations of acetone and crop oil concentrate.
The treated plants and control plants were placed in a greenhouse as described above and water was added as needed to maintain a paddy flood. […]

| SMILES | Visual Weed Control (%) - 20 DAA BRAPP Obs (BRAPP; 4.38 gae/ha) | Visual Weed Control (%) - 20 DAA BRAPP Obs (BRAPP; 8.75 gae/ha) | Visual Weed Control (%) - 21 DAA LEFCH Obs (LEFCH; 4.38 gae/ha) | Visual Weed Control (%) - 21 DAA LEFCH Obs (LEFCH; 8.75 gae/ha) | Visual Weed Control (%) - 20 DAA BRAPP Obs (BRAPP; 17.5 gae/ha) | Visual Weed Control (%) - 21 DAA LEFCH Obs (LEFCH; 17.5 gae/ha) |
| --- | --- | --- | --- | --- | --- | --- |
| COc1c(Cl)ccc(-c2nc(C(=O)OCc3ccccc3)c(Cl)c(N)c2F)c1F [Compound A Benzyl Ester, benzyl ester of 4-amino-3-chloro-5-fluoro-6-(4-chloro-2-fluoro-3-methoxy-phenyl)pyridine-2-carboxylic acid] | 50% | 70% | 15% | 15% | – | – |
| COc1c(Cl)ccc(-c2nc(C(=O)O)c(Cl)c(N)c2F)c1F [Compound A Acid, 4-amino-3-chloro-6-(4-chloro-2-fluoro-3-methoxyphenyl)-5-fluoropyridine-2-carboxylic acid] | – | 60% and 80% | – | 0% | 85% | 0% |
